Results from PubChem BioAssay (NCI).
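Step 1: Grow cells in 96-well plates. Step 2: Expose to compound for 48 hours at 5 concentrations. Step 3: Interpolate endpoints linearly; if unreached, use highest concentration. Abbreviation: GI50, concentration required for 50% inhibition of growth. Definition used: TGI = concentration required for complete inhibition of growth.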

How the values were obtained:
Assay in all cases: inhibition of tumour cell growth, NCI panel, 48 h
NCI-H522 lung = tested on: NCI-H522 lung
SF-268 CNS = tested on: SF-268 CNS
M14 melanoma = tested on: M14 melanoma
T-47D breast = tested on: T-47D breast
786-0 renal = tested on: 786-0 renal
OVCAR-8 ovarian = tested on: OVCAR-8 ovarian
MDA-MB-435 = tested on: MDA-MB-435
HT29 colon = tested on: HT29 colon
SK-MEL-2 melanoma = tested on: SK-MEL-2 melanoma
NCI-H460 lung = tested on: NCI-H460 lung
TK-10 renal = tested on: TK-10 renal
K-562 leukemia = tested on: K-562 leukemia
SK-MEL-5 melanoma = tested on: SK-MEL-5 melanoma
BT-549 breast = tested on: BT-549 breast
HS 578T breast = tested on: HS 578T breast
COLO 205 colon = tested on: COLO 205 colon
HCC-2998 colon = tested on: HCC-2998 colon
SN12C renal = tested on: SN12C renal
CCRF-CEM leukemia = tested on: CCRF-CEM leukemia
NCI/ADR-RES ovarian = tested on: NCI/ADR-RES ovarian
A549 NSCLC = tested on: A549 NSCLC
LOX IMVI melanoma = tested on: LOX IMVI melanoma
KM12 colon = tested on: KM12 colon
SW-620 colon = tested on: SW-620 colon
HCT-15 colon = tested on: HCT-15 colon
HCT-116 colon = tested on: HCT-116 colon
U251 CNS = tested on: U251 CNS
SNB-19 CNS = tested on: SNB-19 CNS

## CNC(=O)c1ccccc1Nc1nc(Nc2ccc(N3CCOCC3)cc2OC)ncc1Cl
NCI-H522 lung
  GI50: 764 nM
  TGI: 9660 nM
SF-268 CNS
  GI50: 1570 nM
  TGI: > 100000 nM
M14 melanoma
  GI50: 541 nM
  TGI: > 62800 nM
T-47D breast
  GI50: 1280 nM
  TGI: > 36100 nM
786-0 renal
  GI50: 1030 nM
  TGI: > 35100 nM
OVCAR-8 ovarian
  GI50: 2290 nM
  TGI: > 100000 nM
MDA-MB-435
  GI50: 629 nM
  TGI: > 66400 nM
HT29 colon
  GI50: 71.4 nM
  TGI: 4730 nM
SK-MEL-2 melanoma
  GI50: 274 nM
  TGI: 2500 nM
NCI-H460 lung
  GI50: 361 nM
  TGI: > 34400 nM
TK-10 renal
  GI50: 197 nM
  TGI: 2010 nM
K-562 leukemia
  GI50: 4750 nM
  TGI: > 90500 nM
SK-MEL-5 melanoma
  GI50: 1680 nM
  TGI: > 37800 nM
BT-549 breast
  GI50: 2580 nM
  TGI: > 39100 nM
HS 578T breast
  GI50: 1700 nM
  TGI: > 26400 nM
COLO 205 colon
  GI50: 103 nM
  TGI: 590 nM
HCC-2998 colon
  GI50: 636 nM
  TGI: > 43200 nM
SN12C renal
  GI50: 1770 nM
  TGI: > 100000 nM
CCRF-CEM leukemia
  GI50: 531 nM
  TGI: > 81900 nM
NCI/ADR-RES ovarian
  GI50: 1110 nM
  TGI: > 50700 nM
A549 NSCLC
  GI50: 344 nM
  TGI: > 20400 nM
LOX IMVI melanoma
  GI50: 401 nM
  TGI: 3170 nM
KM12 colon
  GI50: 298 nM
  TGI: 8520 nM
SW-620 colon
  GI50: 314 nM
  TGI: > 100000 nM
HCT-15 colon
  GI50: 542 nM
  TGI: > 40800 nM
HCT-116 colon
  GI50: 537 nM
  TGI: > 35300 nM
U251 CNS
  GI50: 1940 nM
  TGI: > 47800 nM
SNB-19 CNS
  GI50: 2050 nM
  TGI: > 100000 nM
